In brackets after ≈: the same amount, converted by molar mass. Where two headings read alike, the source gives them in different places.
Key:
[1] = system: C33A human cervix cancer; experiment: In vitro anti-tumor activity against C-33A human cervix cancer (MTT); format: cell-based; conditions: C-33A, 72 h, MTT, read-out: IC50
Procedure: (§1) A culture medium containing 500 to 2,000 human cancer cells was put in an amount of 0.1 ml in each well of 96-well plate, and the cells were cultured for 20 hours under a condition of 37° C. and 5% carbon dioxide gas in air. After the culturing, a solution of test compounds of predetermined concentration was added, and then, the cells were cultured for further 72 hours. After the culturing, an MTT (5 mg/ml) solution was added in an amount of 0.01 ml in the respective wells, and the cells were cultured for further 4 hours. The supernatants of the culture medium were removed by suction, and then, 0.1 ml of dimethyl sulfoxide was put in respective well to dissolve the formed formazan, and, moreover, 0.1 ml of dimethyl sulfoxide was added.

[2] = system: MKN45 human stomach cancer; experiment: In vitro anti-tumor activity against MKN45 human stomach cancer (MTT); format: cell-based; conditions: MKN-45, MKN45, 72 h, MTT, read-out: IC50
Procedure: as §1

[3] = system: murine P388 lymphocytic leukemia cells; experiment: Increases in life span of mice implanted with murine P388 lymphocytic leukemia cells; format: in vivo, SLC: BDF1 mice; conditions: ip; for ILS at 50 mg/kg / ILS at 1.56 mg/kg / ILS at 3.13 mg/kg / ILS at 6.25 mg/kg / ILS at 12.5 mg/kg / ILS at 25 mg/kg / ILS at 0.78 mg/kg: Mus musculus, P388, ip, 720 h
Procedure: 1×10^6 murine P388 lymphocytic leukemia cells were intraperitoneally implanted in each of SLC: BDF1 mice (8 to 10 weeks old, female, 7 animals per one group). A test compound (drug) was either dissolved in 0.1 N--NaOH or suspended in 0.4% carboxymethylcellulose solution, and the resultant solution or suspension was diluted with distilled water or 0.4% carboxymethylcellulose solution so as to give predetermined concentrations for administration. The obtained solution was intraperitoneally (ip) administered twice, namely on the day following the implantation (1st day) and the 5th day, each 0.2 ml. The life and death of the mice were observed over a period of 30 days, and the median survival time (hereinafter referred to as MST) was determined for each group, and, thus, the increase in life span (ILS; %) was calculated according to the following equation:
ILS (%)=[{(MST of the test group)/(MST of the control group)}-1]×100
Drug effect was judged in the following manner, according to the criterion of U.S. National Cancer Institute (NCI):
ILS=75% or higher: ++ (remarkably effective);
20 to 74%: + (effective);
19% or lower: - (ineffective)

[4] = system: colon 26 murine tumor cells; experiment: Tumor growth inhibition effect on colon 26 murine tumor cells implanted mice; format: in vivo, SLC: CDF1 mice; conditions: Mus musculus, Colon 26, 504 h, ip, days 1-9, day 21 or 22, read-out: Tumor growth inhibition rate IR (%); for inhibition in vivo at 1.56 mg/kg: 1.56 mg/kg once a day; for inhibition in vivo at 3.13 mg/kg: 3.13 mg/kg once a day
Procedure: A 2% brei of colon 26 murine tumor cells was intracutaneously implanted each 0.1 ml in the abdominal part of SLC: CDF1 female mice (7 to 9 weeks old, 7 animals per one group). […] The obtained solutions were intraperitoneally (ip) administered each 0.2 ml once a day, from the day (1st day) following the implantation to the 9th day. On the 21st or 22nd day after the implantation, tumor weight was estimated from tumor diameters, and thus, the tumor growth inhibition rate (IR %) of the drug administered group in comparison with the control group was calculated according to the following equation. IR (%)=[1-{(MTW in the treated group)/(MTW in the control group)}]×10 0 MTW: mean tumor weight

[5] = system: murine P388 lymphocytic leukemia cells; experiment: In vitro anti-tumor activity against murine P388 lymphocytic leukemia cells (MTT, 72 h); format: cell-based; conditions: Mus musculus; murine P388 cells, 72 h, MTT; read-out: IC50 (50% proliferation inhibitory concentration)
Procedure: Test compounds were tested for anti-tumor activity according to MTT [3-(4,5-dimethylthiazol-2-yl)-2,5-diphenyltetrazolium bromide] method, using murine P388 lymphocytic leukemia cells. […] The culture medium was centrifuged (4° C., 2,000 rpm for 20 minutes), and thus, the supernatants were removed by suction. Then, 0.1 ml of dimethyl sulfoxide was put in each well to dissolve the formed formazan, and, subsequently, another 0.1 ml of dimethyl sulfoxide was added. The absorbance (OD) of each of the obtained solutions was measured by use of Multiskan Bichromatic (main wavelength 570 nm, sub-wavelength 690 nm). […] IC50 :μg/ml) were calculated by the least squares method.

[6] = system: WiDr human colorectal cancer; experiment: In vitro anti-tumor activity against WiDr human colorectal cancer (MTT); format: cell-based; conditions: 72 h, MTT, read-out: IC50
Procedure: as §1

[7] = system: AZ521 human stomach cancer; experiment: In vitro anti-tumor activity against AZ-521 human stomach cancer (MTT); format: cell-based; conditions: AZ-521, 72 h, MTT, read-out: IC50
Procedure: as §1

[8] = system: HMV2 human melanoma; experiment: In vitro anti-tumor activity against HMV-2 human melanoma (MTT); format: cell-based; conditions: HMV-2, 72 h, MTT, read-out: IC50
Procedure: as §1

[9] = system: A427 human lung cancer; experiment: In vitro anti-tumor activity against A-427 human lung cancer (MTT); format: cell-based; conditions: A-427, 72 h, MTT, read-out: IC50
Procedure: as §1

[10] = system: KB human nasopharynx cancer; experiment: In vitro anti-tumor activity against KB human nasopharynx cancer (MTT); format: cell-based; conditions: KB, 72 h, MTT, read-out: IC50
Procedure: as §1

[11] = NCI criterion, read-out: Evaluation
[12] = days 1 and 5, in solution, read-out: ILS (%) (in solution)
[13] = days 1 and 5, in suspension, read-out: ILS (%) (in suspension)
[14] = NCI criterion, 3.13 mg/kg, read-out: Evaluation
[15] = NCI criterion, 6.25 mg/kg, read-out: Evaluation
[16] = NCI criterion, 12.5 mg/kg, read-out: Evaluation
[17] = NCI criterion, 25 mg/kg, read-out: Evaluation
[18] = 3.13 mg/kg, days 1 and 5, in solution, read-out: ILS (%) (in solution)
[19] = 3.13 mg/kg, days 1 and 5, in suspension, read-out: ILS (%) (in suspension)
[20] = 6.25 mg/kg, days 1 and 5, in solution, read-out: ILS (%) (in solution)
[21] = 12.5 mg/kg, days 1 and 5, in solution, read-out: ILS (%) (in solution)
[22] = 12.5 mg/kg, days 1 and 5, in suspension, read-out: ILS (%) (in suspension)
[23] = 25 mg/kg, days 1 and 5, in solution, read-out: ILS (%) (in solution)

Row | Compound | IC50 [1] | IC50 [2] | ILS at 50 mg/kg [3, 11] | ILS at 50 mg/kg [3, 12] | ILS at 50 mg/kg [3, 13] | inhibition in vivo at 1.56 mg/kg [4] | IC50 [5] | IC50 [6] | IC50 [7] | IC50 [8] | IC50 [9] | IC50 [10] | ILS at 3.13 mg/kg [3, 14] | ILS at 6.25 mg/kg [3, 15] | ILS at 12.5 mg/kg [3, 16] | ILS at 25 mg/kg [3, 17] | ILS at 3.13 mg/kg [3, 18] | ILS at 3.13 mg/kg [3, 19] | ILS at 6.25 mg/kg [3, 20] | ILS at 12.5 mg/kg [3, 22] | also measured
1 | CN[C@@H]1CN(c2ccc3c(=O)c(C(=O)O)cn(-c4nccs4)c3n2)C[C@H]1OC.Cl (single isomer, unassigned) [Compound 1-3, (-)-1,4-Dihydro-7-(trans-3-methoxy-4-methylamino-1-pyrrolidinyl)-4-oxo-1-(2-thiazolyl)-1,8-naphthyridine-3-carboxylic acid hydrochloride] | 0.148 mg/L | 0.222 mg/L | > 75% | > 275% | 200% | 50% | 0.02 mg/L | 0.503 mg/L | 0.11 mg/L | 0.234 mg/L | 0.107 mg/L | 0.208 mg/L |  |  |  |  |  |  |  |  | Evaluation ([3]; NCI criterion, 3.13 mg/kg): + (20 to 74%: + (effective)); Evaluation ([3]; NCI criterion, 6.25 mg/kg): ++ (ILS=75% or higher: ++ (remarkably effective)); Evaluation ([3]; NCI criterion, 12.5 mg/kg): ++ (ILS=75% or higher: ++ (remarkably effective)); Evaluation ([3]; NCI criterion, 25 mg/kg): ++ (ILS=75% or higher: ++ (remarkably effective)); ILS (%) (in solution) ([3]; 3.13 mg/kg, days 1 and 5, in solution): 63%; ILS (%) (in suspension) ([3]; 3.13 mg/kg, days 1 and 5, in suspension): 63%; ILS (%) (in solution) ([3]; 6.25 mg/kg, days 1 and 5, in solution): 88%; ILS (%) (in solution) ([3]; 12.5 mg/kg, days 1 and 5, in solution): 138%; ILS (%) (in suspension) ([3]; 12.5 mg/kg, days 1 and 5, in suspension): 125%; ILS (%) (in solution) ([3]; 25 mg/kg, days 1 and 5, in solution): 200%; inhibition in vivo at 2.21 mg/kg ([4]; 2.21 mg/kg once a day): 75%
2 | CNC1CCN(c2ccc3c(=O)c(C(=O)O)cn(-c4nccs4)c3n2)C1 (stereo not drawn) [Compound 6] | 0.156 mg/L (≈ 0.42 µM) | 0.16 mg/L (≈ 0.431 µM) | > 75% |  | > 275% | 71% | 0.0105 mg/L (≈ 0.0283 µM) | 0.381 mg/L (≈ 1.03 µM) | 0.0622 mg/L (≈ 0.167 µM) | 0.122 mg/L (≈ 0.328 µM) | 0.0832 mg/L (≈ 0.224 µM) | 0.0987 mg/L (≈ 0.266 µM) | > 75% | > 75% | > 75% | > 75% | 100% | 100% | 138% | 200% | ILS at 1.56 mg/kg [3, 11]: 20 to 74%; ILS at 1.56 mg/kg [3, 12]: 63%; ILS at 12.5 mg/kg [3, 21]: 150%; ILS at 25 mg/kg [3, 23]: 225%
3 | Cl.NC1CCN(c2ccc3c(=O)c(C(=O)O)cn(-c4nc(F)cs4)c3n2)C1 (stereo not drawn) [Compound 8, 7-(3-Amino-1-pyrrolidinyl)-1-(4-fluoro-2-thiazolyl)-1,4-dihydro-4-oxo-1,8-naphthyridine-3-carboxylic acid hydrochloride] | 0.0712 mg/L | 0.143 mg/L |  |  |  | 91% | 0.00413 mg/L | 0.323 mg/L | 0.0285 mg/L | 0.0578 mg/L | 0.0625 mg/L | 0.0494 mg/L | > 75% |  | > 75% |  |  | 175% |  | > 275% | ILS at 0.78 mg/kg [3, 11]: > 75%; ILS at 0.78 mg/kg [3, 13]: 75%; inhibition in vivo at 0.39 mg/kg ([4]; 0.39 mg/kg once a day): 57%
4 | Cl.Nc1cc(N2CCC(N)C2)nc2c1c(=O)c(C(=O)O)cn2-c1nccs1 (stereo not drawn) [Compound 9, 5-Amino-7-(3-amino-1-pyrrolidinyl)-1,4-dihydro-4-oxo-1-(2-thiazolyl)-1,8-naphthyridine-3-carboxylic acid hydrochloride] | 0.151 mg/L | 0.148 mg/L | > 75% |  | 250% |  | 0.00809 mg/L | 0.412 mg/L | 0.0625 mg/L | 0.211 mg/L | 0.1 mg/L | 0.106 mg/L | > 75% |  | > 75% |  |  | 100% |  | 125% | inhibition in vivo at 3.13 mg/kg [4]: 62%; inhibition in vivo at 6.25 mg/kg ([4]; 6.25 mg/kg once a day): 97%
5 | CC1(N)CCN(c2ccc3c(=O)c(C(=O)O)cn(-c4nccs4)c3n2)C1 (stereo not drawn) [Compound 10] | 0.247 mg/L (≈ 0.665 µM) | 0.468 mg/L (≈ 1.26 µM) | > 75% | > 275% |  |  | 0.0192 mg/L (≈ 0.0517 µM) | 0.797 mg/L (≈ 2.15 µM) | 0.292 mg/L (≈ 0.786 µM) | 0.386 mg/L (≈ 1.04 µM) | 0.153 mg/L (≈ 0.412 µM) | 0.19 mg/L (≈ 0.512 µM) | 20 to 74% | > 75% | > 75% | > 75% | 63% | 50% | 75% | 113% | ILS at 12.5 mg/kg [3, 21]: 100%; ILS at 25 mg/kg [3, 23]: 125%; inhibition in vivo at 3.13 mg/kg [4]: 74%

Source: patent publication US5817669A, “Compounds, processes for the preparation thereof and anti-tumor agents” (Dainippon Pharmaceutical Co., Ltd., priority 1994, dated 1998)
